Reference: patent US11117919B2, “Icariside compound, preparation method thereof, and application thereof” (FOSHAN GOLDEN HEALTH TECHNOLOGY CO., LTD., priority 2015, dated 2021)

Tested on: xenograft tumor
Assay: Xenograft tumor growth in nude mice
Format: in vivo, BALB/c (nu/nu) female nude mice
Conditions: intraperitoneal 0.02 and 0.1 mg/10 g every 2 days, 30-day period
Protocol: The test used 4-6 weeks old BALB/c (nu/nu) female nude mice weighed 18-22 g fed in a SPF clean room with free access to food and water. […] When the tumor grew to the initial volume for administration with a pharmaceutical (100 mm^3), these mice were divided into groups with 10 mice for each group. For each group, nude mice were injected intraperitoneally: (1) the blank control group was injected with 0.1 ml/10 g solvent (5% DMSO+95% physiological saline); […] The administration was conducted every 2 days in a 30-day period. Vernier caliper was used to measure the largest longitudinal diameter (L) and transverse diameter (S) of tumor every two days. The approximate volume of the tumor was calculated with the equation of V (cm^3)=0.5×L× S^2 to plot a tumor growth curve. After the pharmaceutical treatment, the tumor was stripped and weighed for record.

SMILES: COc1ccc(-c2oc3c(CC=C(C)C)c(O[C@@H]4O[C@H](CO)[C@@H](O)[C@H](O)[C@H]4O)cc(O)c3c(=O)c2O)cc1 [icariside I]
- growth and development of the transplanted tumor mass in nude mice: significantly inhibit
